The target of one test is T1, EGFR wild type (Homo sapiens, UniProt P00533).
T1 construct: purchased Carna Bio
The experiment in a line: Inhibition of EGFR wild type biochemical enzymatic activity (HTRF). Particulars: 1 mM ATP. On the procedure: (§1) Biological Example 1: Inhibition of EGFR WT and Mutant Biochemical Enzymatic Activity
(§2) The inhibition potency of compounds against these enzymes was assessed using Homogenous Time Resolved Fluorescence approach (HTRF, CisBio. Cat No. 62TKOPEJ).
(§3) Inhibitory effects of the compounds were determined by measuring the enzymatic activity of EGFR enzyme phosphorylates 1 μM TK Substrate-biotin in the presence of 1 mM adenosine-5′-triphosphate (ATP) and varying concentrations of the test compound. The enzyme reaction buffer contains 5 mM MgCl2, 1 mM MnC12, 0.01% CHAPS, 1 mM dithiothreitol (DTT), 0.5% dimethylsulfoxide (DMSO), and 1× supplemented enzymatic buffer. The WT and mutant EGFR enzymes (SignalChem) were added to plates containing inhibitors, followed by activation of the kinase reaction by addition of ATP and peptide substrates. After incubation for 1 h at room temperature, the reaction was stopped by the addition of the detection reagent mix containing EDTA. The fluorescence was measured at 615 nm and 665 nm, respectively with excitation wavelength at 320 nm. The calculated signal ratio of 665 nm/615 nm is proportional to the kinase activity. The concentration of compound producing 50% inhibition of the respective kinase (IC50) was calculated using four-parameter logistic fit with XL-FIT.
In general terms: Time-resolved FRET reads energy transfer from a long-lived donor to a nearby acceptor.

The target in the next test is T2, EGFR L858R (Homo sapiens, UniProt P00533, L858R).
T2 construct: purchased Carna Bio
The experiment in a line: Inhibition of EGFR L858R biochemical enzymatic activity (HTRF). To be noted: 1 mM ATP. On the procedure: as §1, §2, §3

The target in another test is T3, EGFR L858R/T790M (Homo sapiens, UniProt P00533, L858R/T790M).
T3 construct: purchased Carna Bio
The experiment in a line: Inhibition of EGFR L858R/T790M biochemical enzymatic activity (HTRF). Particulars: 1 mM ATP. Here is the method:
as §1, §2, §3

In a further test the target is T4, EGFR Exon19Del (Homo sapiens, UniProt P00533, DEL746-750).
T4 construct: purchased Carna Bio
Description: Inhibition of EGFR Exon19Del biochemical enzymatic activity (HTRF). To be noted: read-out: IC50 @Del19. On the procedure:
as §1, §2, §3

The target in the next test is T5, EGFR Exon19Del/T790M (Homo sapiens, UniProt P00533, DEL746-750/T790M).
T5 construct: purchased Carna Bio
Description: Inhibition of EGFR Exon19Del/T790M biochemical enzymatic activity (HTRF). To be noted: 1 mM ATP. On the procedure: as §1, §2, §3

A further test addresses T6, EGFR[T790M/C797S/L858R] (Homo sapiens, UniProt P00533, C797S/L858R/T790M).
T6 construct: purchased Carna Bio
The experiment in a line: Inhibition of EGFR[T790M/C797S/L858R] biochemical enzymatic activity (HTRF). To be noted: 1 mM ATP. Here is the method:
as §1, §2, §3

Test [1] addresses T7, EGFR[T790M/C797S/d746-750] (Homo sapiens, UniProt P00533, C797S/DEL746-750/T790M).
T7 construct: purchased Carna Bio
The experiment in a line: Inhibition of EGFR[T790M/C797S/d746-750] biochemical enzymatic activity (HTRF). On the procedure: as §1, §2, §3

In a further test the target is T8, EGFR (d746-750 C797S) (Homo sapiens, UniProt P00533, C797S/DEL746-750).
T8 construct: purchased signalchem
The experiment in a line: Inhibition of EGFR (d746-750 C797S) biochemical enzymatic activity (HTRF). Particulars: 1 mM ATP. Here is the method: as §1, §2, §3

In a further test the target is T9, EGFR (C797S L858R) (Homo sapiens, UniProt P00533, C797S/L858R).
T9 construct: purchased signalchem
The experiment in a line: Inhibition of EGFR (C797S L858R) biochemical enzymatic activity (HTRF). Particulars: 1 mM ATP. On the procedure:
as §1, §2, §3

In test [2] the test system is Ba/F3 cells expressing EGFR mutations. Description: Cell proliferation assay, Ba/F3 cells expressing EGFR mutations (CellTiter-Glo, 72 hours). Type of test: cell-based. Particulars: Mus musculus, BaF3, 72 h. On the procedure: Biological Example 2: Cell Proliferation Assays
Ba/F3 cells expressing EGFR mutations were seeded in 384-well plates at 5000 cells/well in RPMI1640 medium containing […]. PC-9 at 500 cells/well was seeded into 384-well plates in RPMI1640 medium with 10% FBS. After overnight incubation, the assay plates were dosed with compounds at a series of concentrations. Alongside dosing the assay plates, the day 0 plate was processed using CellTiter-Glo® Luminescent Cell Viability Assay (Promega) to measure the number of viable cells (G0). The assay plates were further incubated for 72 hours and the number of viable cells (G3) was measured. The percentage of proliferation was calculated as: […]=100×(G3 value of sample well−G0 value)/(G3 value of DMSO control−G0 value). The concentration of compound producing 50% proliferation inhibition (GI50) was further calculated in best-fit curves using XLFit software. N/A=not available.
For orientation: ATP-based viability assays read luminescence as a measure of living cells.

The subject of another test is PC-9. The experiment in a line: Cell proliferation assay, PC-9 cells (CellTiter-Glo, 72 hours). The format is cell-based. Particulars: Homo sapiens, PC-9, 72 h, PC9 cells. The gist of the method:
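Luminescent viable-cell counts were taken on a day 0 plate at dosing and again at endpoint. Proliferation was calculated as (sample − G0)/(DMSO − G0). Seeding was 5000 Ba/F3 or 500 PC-9 cells per well in RPMI1640, followed by overnight attachment and serial compound dilutions. The GI50 was fitted.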

Setting [3] is: EGFR wild type, 1 h at room temperature, read-out: IC50 @WT.
The mark [4] stands for this setting: 1 h at room temperature, read-out: IC50 @L858R.
Setting [5] is: EGFR L858R/T790M, 1 h at room temperature, read-out: IC50 @L858R-T790M.
The mark [6] stands for this setting: EGFR Exon19Del, 1 mM ATP, 1 h at room temperature.
Setting [7] is: EGFR Exon19Del/T790M, 1 h at room temperature, read-out: IC50 @Del19-T790M.
Where [8] appears, read: EGFR[T790M/C797S/L858R], 1 h at room temperature, read-out: IC50 @T790M- C797S - L858R.
[9] abbreviates: EGFR[T790M/C797S/d746-750], 1 mM ATP, 1 h at room temperature, read-out: IC50 @T790M - C797S - Del19.
Where [10] appears, read: EGFR (d746-750 C797S), 1 h at room temperature, read-out: IC50 @Del19-C797S.
Where [11] appears, read: EGFR (C797S L858R), 1 h at room temperature, read-out: IC50 @L858-C797S.
The mark [12] stands for this setting: BaF3 cells, EGFR DEL19 - C797S, read-out: GI50 DEL19 - C797S/BaF3.
The mark [13] stands for this setting: BaF3 cells, EGFR DEL19 - T790-C797S, read-out: GI50 DEL19 - T790-C797S/BaF3.
The mark [14] stands for this setting: BaF3 cells, EGFR L858R - C797S, read-out: GI50 L858R - C797S/BaF3.
The mark [15] stands for this setting: BaF3 cells, EGFR L858R - T790-C797S, read-out: GI50 L858R - T790-C797S/BaF3.
[16] abbreviates: BaF3 cells, EGFR L858R - T790M, read-out: GI50 L858R - T790M/BaF3.
[17] abbreviates: BaF3 cells, EGFR L858R, read-out: GI50 L858R/BaF3.
The mark [18] stands for this setting: EGFR DEL19 - T790M, read-out: GI50 DEL19 - T790M.

For orientation: IC50 means the point on the concentration scale where inhibition reaches its midpoint.

Like-named read-outs stand apart in the source and are kept apart here.

T6 sequence (P00533 25-1210 T790M/C797S/L858R): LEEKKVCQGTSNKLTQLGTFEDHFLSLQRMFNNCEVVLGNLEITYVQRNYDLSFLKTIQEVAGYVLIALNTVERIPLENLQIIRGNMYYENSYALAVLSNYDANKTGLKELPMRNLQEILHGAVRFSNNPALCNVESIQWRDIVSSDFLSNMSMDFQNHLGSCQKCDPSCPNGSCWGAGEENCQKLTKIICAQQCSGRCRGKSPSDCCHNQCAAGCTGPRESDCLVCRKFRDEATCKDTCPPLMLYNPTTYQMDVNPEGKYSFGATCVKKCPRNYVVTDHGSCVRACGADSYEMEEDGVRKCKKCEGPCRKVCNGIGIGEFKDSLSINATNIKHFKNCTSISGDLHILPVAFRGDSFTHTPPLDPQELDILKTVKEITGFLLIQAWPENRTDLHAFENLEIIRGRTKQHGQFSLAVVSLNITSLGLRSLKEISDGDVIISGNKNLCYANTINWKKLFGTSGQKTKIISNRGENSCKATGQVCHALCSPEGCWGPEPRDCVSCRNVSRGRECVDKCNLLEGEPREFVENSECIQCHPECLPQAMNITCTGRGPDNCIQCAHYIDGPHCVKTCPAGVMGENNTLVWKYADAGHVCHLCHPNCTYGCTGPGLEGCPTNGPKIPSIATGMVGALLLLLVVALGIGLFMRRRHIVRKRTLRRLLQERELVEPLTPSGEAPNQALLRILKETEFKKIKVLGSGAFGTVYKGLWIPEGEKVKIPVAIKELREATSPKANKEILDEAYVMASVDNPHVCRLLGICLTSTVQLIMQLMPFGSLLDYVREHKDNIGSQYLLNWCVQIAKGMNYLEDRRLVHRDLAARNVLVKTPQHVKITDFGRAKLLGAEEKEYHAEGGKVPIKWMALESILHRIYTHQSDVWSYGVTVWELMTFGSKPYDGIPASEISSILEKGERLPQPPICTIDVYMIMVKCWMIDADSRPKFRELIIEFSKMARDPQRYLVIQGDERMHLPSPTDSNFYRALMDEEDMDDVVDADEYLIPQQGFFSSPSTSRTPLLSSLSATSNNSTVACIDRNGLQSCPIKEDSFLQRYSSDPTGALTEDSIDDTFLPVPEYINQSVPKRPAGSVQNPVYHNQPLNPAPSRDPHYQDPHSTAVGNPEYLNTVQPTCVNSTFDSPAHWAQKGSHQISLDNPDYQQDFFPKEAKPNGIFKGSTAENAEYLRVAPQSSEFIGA
T9 sequence (P00533 25-1210 C797S/L858R): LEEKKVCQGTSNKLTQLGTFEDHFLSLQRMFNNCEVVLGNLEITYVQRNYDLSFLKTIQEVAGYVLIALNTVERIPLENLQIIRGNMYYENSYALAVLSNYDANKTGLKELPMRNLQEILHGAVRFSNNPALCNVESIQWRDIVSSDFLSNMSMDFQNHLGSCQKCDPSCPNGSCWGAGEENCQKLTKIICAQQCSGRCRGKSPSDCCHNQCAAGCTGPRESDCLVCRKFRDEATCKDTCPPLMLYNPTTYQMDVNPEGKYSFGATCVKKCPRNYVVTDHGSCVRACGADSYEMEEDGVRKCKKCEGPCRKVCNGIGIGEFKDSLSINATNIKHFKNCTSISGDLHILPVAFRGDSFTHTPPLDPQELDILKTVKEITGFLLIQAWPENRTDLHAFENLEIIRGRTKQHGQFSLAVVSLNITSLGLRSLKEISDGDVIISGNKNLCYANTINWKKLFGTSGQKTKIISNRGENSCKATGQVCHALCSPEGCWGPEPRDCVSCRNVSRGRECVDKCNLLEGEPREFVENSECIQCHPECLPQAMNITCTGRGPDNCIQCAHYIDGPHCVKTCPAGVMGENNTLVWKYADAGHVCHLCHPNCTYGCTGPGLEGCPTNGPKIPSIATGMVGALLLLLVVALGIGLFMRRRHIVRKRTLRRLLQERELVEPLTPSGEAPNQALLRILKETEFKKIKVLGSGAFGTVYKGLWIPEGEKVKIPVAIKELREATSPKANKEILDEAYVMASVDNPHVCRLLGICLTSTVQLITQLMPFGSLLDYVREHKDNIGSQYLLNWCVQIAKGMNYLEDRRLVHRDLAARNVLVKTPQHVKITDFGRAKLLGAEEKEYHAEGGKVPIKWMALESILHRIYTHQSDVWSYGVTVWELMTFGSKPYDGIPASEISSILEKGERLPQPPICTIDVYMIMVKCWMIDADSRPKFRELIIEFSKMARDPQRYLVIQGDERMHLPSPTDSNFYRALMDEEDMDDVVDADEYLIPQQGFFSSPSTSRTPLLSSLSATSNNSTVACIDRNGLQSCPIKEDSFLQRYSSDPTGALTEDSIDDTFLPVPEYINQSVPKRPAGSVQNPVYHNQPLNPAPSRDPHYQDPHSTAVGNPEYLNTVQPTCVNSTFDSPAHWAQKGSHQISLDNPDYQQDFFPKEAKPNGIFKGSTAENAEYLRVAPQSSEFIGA
T8 sequence (P00533 with tags, fused parts or gaps DEL746-750/C797S limits assumed): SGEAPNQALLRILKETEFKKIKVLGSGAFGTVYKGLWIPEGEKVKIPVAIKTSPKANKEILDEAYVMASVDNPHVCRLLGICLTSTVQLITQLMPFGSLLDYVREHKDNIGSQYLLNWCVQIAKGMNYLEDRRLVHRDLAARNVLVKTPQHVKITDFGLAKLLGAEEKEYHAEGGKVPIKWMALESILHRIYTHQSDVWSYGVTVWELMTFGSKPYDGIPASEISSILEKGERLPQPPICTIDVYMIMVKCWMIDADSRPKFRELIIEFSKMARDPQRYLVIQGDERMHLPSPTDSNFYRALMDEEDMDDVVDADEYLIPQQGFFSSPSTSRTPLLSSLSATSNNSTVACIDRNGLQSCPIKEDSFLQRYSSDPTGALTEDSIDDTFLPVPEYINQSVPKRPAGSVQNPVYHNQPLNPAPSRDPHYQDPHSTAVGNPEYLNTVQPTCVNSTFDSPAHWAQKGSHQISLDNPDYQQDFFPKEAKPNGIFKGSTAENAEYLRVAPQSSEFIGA
T2 sequence (P00533 25-1210 L858R): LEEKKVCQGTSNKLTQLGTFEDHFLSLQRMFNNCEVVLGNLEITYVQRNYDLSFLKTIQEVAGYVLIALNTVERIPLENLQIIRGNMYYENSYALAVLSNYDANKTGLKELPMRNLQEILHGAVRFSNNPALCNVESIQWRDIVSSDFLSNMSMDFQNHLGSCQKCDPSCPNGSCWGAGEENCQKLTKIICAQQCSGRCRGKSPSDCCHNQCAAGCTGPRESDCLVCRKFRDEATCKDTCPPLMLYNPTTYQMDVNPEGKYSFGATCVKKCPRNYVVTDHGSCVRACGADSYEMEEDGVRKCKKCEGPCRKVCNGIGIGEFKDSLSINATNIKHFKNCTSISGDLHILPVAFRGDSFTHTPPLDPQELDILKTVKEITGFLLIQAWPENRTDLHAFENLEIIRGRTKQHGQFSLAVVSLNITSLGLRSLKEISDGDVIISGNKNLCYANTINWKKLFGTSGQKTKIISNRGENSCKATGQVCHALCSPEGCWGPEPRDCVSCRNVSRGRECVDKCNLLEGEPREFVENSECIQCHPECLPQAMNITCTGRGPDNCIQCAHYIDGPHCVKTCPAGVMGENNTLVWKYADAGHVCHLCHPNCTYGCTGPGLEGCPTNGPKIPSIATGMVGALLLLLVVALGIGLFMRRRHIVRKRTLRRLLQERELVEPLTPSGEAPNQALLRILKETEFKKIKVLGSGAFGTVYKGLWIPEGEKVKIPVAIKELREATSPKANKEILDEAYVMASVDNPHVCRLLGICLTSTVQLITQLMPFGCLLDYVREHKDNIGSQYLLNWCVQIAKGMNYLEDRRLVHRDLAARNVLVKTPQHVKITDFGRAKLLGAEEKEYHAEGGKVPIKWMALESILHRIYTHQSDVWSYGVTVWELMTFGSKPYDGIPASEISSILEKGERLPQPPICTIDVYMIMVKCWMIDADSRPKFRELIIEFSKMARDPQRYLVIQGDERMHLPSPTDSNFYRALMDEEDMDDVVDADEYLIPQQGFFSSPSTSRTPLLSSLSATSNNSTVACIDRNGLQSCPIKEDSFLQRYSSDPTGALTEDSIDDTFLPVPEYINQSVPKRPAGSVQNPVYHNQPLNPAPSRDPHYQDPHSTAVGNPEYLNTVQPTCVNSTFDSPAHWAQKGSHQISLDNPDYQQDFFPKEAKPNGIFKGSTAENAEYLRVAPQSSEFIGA
T5 sequence (P00533 with tags, fused parts or gaps DEL746-750/T790M limits assumed): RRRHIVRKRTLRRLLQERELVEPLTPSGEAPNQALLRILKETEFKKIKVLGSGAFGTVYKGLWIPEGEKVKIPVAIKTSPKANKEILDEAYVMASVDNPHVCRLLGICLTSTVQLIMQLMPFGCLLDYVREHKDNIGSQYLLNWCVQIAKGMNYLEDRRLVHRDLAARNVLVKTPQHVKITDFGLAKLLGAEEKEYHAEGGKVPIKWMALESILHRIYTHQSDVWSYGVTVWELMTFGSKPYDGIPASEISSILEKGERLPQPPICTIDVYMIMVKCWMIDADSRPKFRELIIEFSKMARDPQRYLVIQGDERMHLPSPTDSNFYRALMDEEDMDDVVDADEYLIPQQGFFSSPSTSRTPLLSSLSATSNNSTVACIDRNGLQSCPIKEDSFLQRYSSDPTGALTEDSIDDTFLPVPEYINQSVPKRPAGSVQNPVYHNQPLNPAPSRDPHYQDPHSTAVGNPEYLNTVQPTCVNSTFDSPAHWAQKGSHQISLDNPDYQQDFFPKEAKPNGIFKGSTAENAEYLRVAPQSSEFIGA

Turning to `Cc1cc2cc(n1)-c1cnn(C)c1OCCN1CC3CCC(CC3)(C1)n1c(nc3ccc(N4CC[C@@H](N(C)C)C4)cc31)NC2=O` [Example B29], the IC50 on EGFR wild type (setting [3]) was > 5000 nM; on EGFR L858R (setting [4]), 352 nM; at EGFR L858R/T790M (setting [5]), 28 nM; on EGFR Exon19Del (setting [6]) it was 45 nM; at EGFR Exon19Del/T790M (setting [7]) it was 17 nM; at EGFR[T790M/C797S/L858R] (setting [8]), 13 nM. In addition, the IC50 worked out at 8.6 nM in test [1] (setting [9]), 28 nM at EGFR (d746-750 C797S) (setting [10]) and 204 nM on EGFR (C797S L858R) (setting [11]). Moreover, the GI50 in test [2] (setting [12]) was determined as 26 nM; in [2] (setting [13]), 9 nM; in test [2] (setting [14]) it was 171 nM; in [2] (setting [15]), 19 nM; in test [2] (setting [16]), 37 nM; in test [2] (setting [17]), 149 nM. Also, the GI50 in test [2] (setting [18]) is 11 nM; in the test on PC-9 (read-out: GI50 PC9), 155 nM.

`Cc1cc2cc(n1)-c1cnn(C)c1OCCCCCn1c(nc3ccc4c(c31)CN(C1COC1)CC4)NC2=O` [Example B18, 5,30-dimethyl-17-(oxetan-3-yl)-7-oxa-4,5,13,17,24,26,31-heptaazahexacyclo[26.3.1.0^{2,6}.0^{13,25}.0^{14,23}.0^{15,20}]dotriaconta-1(31),2(6),3,14,20,22,24,28(32),29-nonaen-27-one]: the IC50 is > 5000 nM on EGFR wild type (setting [3]); > 5000 nM at EGFR L858R (setting [4]); > 5000 nM on EGFR L858R/T790M (setting [5]); 942 nM at EGFR Exon19Del (setting [6]); 33 nM on EGFR Exon19Del/T790M (setting [7]); 1990 nM on EGFR[T790M/C797S/L858R] (setting [8]). For the same compound, the IC50 is 31 nM in test [1] (setting [9]), > 500 nM at EGFR (d746-750 C797S) (setting [10]) and > 5000 nM at EGFR (C797S L858R) (setting [11]). Besides, the GI50 in test [2] (setting [12]) amounted to 86 nM; in test [2] (setting [13]), 32 nM; in test [2] (setting [14]), 2700 nM; in test [2] (setting [15]) it was 24 nM; in test [2] (setting [16]), 96 nM; in test [2] (setting [17]) it was 432 nM. The GI50 stood at 12 nM in test [2] (setting [18]) and 122 nM in the test with PC-9 (read-out: GI50 PC9).

As for `CN(C)CCC1CN(c2ccc3nc4n(c3c2)C23CCC(CN(CCOc5c(cnn5C)-c5cc(cn(C)c5=O)C(=O)N4)C2)C3)C1` (single isomer, unassigned) [Example A95B], the IC50 stood at 55 nM at EGFR wild type (EGFR WT, 1 h, room temperature, read-out: IC50 (nM) @WT); 7 nM at EGFR L858R (1 h, room temperature, read-out: IC50 (nM) @L858R); 3.7 nM on EGFR L858R/T790M (EGFR L858R-T790M, 1 h, room temperature, read-out: IC50 (nM) @L858R-T790M); 1.7 nM on EGFR Exon19Del (EGFR Del19, 1 mM ATP, 1 h, room temperature); 3.1 nM on EGFR Exon19Del/T790M (EGFR Del19-T790M, 1 h, room temperature, read-out: IC50 (nM) @Del19-T790M); 3.3 nM at EGFR[T790M/C797S/L858R] (EGFR T790M-C797S-L858R, 1 h, room temperature, read-out: IC50 (nM) @T790M- C797S - L858R). Further, the IC50 in [1] (EGFR T790M-C797S-Del19, 1 mM ATP, 1 h, room temperature, read-out: IC50 (nM) @T790M - C797S - Del19) was found to be 2.7 nM; on EGFR (d746-750 C797S) (EGFR Del19-C797S, 1 h, room temperature, read-out: IC50 (nM) @Del19-C797S) it was 1.5 nM; on EGFR (C797S L858R) (EGFR L858-C797S, 1 h, room temperature, read-out: IC50 (nM) @L858-C797S), 4.7 nM. The GI50 in [2] (BaF3 cells, EGFR DEL19-C797S, CellTiter-Glo, read-out: DEL19-C797S/BaF3 GI50) was determined as 95 nM; in test [2] (BaF3 cells, EGFR DEL19-T790-C797S, CellTiter-Glo, read-out: DEL19-T790-C797S/BaF3 GI50), 228 nM; in test [2] (BaF3 cells, EGFR L858R, CellTiter-Glo, read-out: L858R/BaF3 GI50), 357 nM; in test [2] (BaF3 cells, EGFR L858R-C797S, CellTiter-Glo, read-out: L858R-C797S/BaF3 GI50), 436 nM; in test [2] (BaF3 cells, EGFR L858R-T790-C797S, CellTiter-Glo, read-out: L858R-T790-C797S/BaF3 GI50), 574 nM; in test [2] (BaF3 cells, EGFR L858R-T790M, CellTiter-Glo, read-out: L858R-T790M/BaF3 GI50) it was 1080 nM. The GI50 in [2] (EGFR DEL19-T790M, CellTiter-Glo, read-out: DEL19-T790M GI50) stood at 177 nM; in the test with PC-9 (CellTiter-Glo, read-out: PC9 GI50) it was 2460 nM.

The values are drawn from patent US20260365670A1, “EGFR INHIBITORS AND USES THEREOF” (DIZAL (JIANGSU) PHARMACEUTICAL CO., LTD., priority 2022, published 2026).
